Source: US4481201A, “Pharmaceutical composition containing N,N^3 -di-(β-bromopropionyl)-N^1,N^2 -dispirotripiperazinium dichloride” (Vsesojuzny Nauchno-Issledovatelsky Khimoko-Farmasevtichesky …, priority 1981, dated 1984)

Key:
[1] = Growth of graft sarcoma 45 in rats; type: in vivo; conditions: rat, in vivo, ip, rats with sarcoma 45, repeated intraperitoneal administration; read-out: Maximum tolerable dose (MTD)
Description: (§1) The antitumor activity has been studied on white rats weighing 110-130 g, as well as on white noninbred and inbred mice weighing 17-21 g with ligated tumors. The treatment is started 5-7 days transplanting of solid tumors and the following day after the transplanting of leukotic strains. Use has been made of the following transplantable strains of the tumors:
(§2) (1) rats: Ienssen's sarcoma, sarcoma 45, sarcoma M-1, sarcoma 536;
(§3) The compounds of the general formula (I), wherein X represents Cl^- (compound 1), Br^- (compound 2) are well-soluble in an isotonic solution of sodium chloride and they are administered intraperitoneally. The doses of the compounds have been calculated in mg per kg of the animal bodyweight.

[2] = tested on: sarcoma 45; assay: Growth of graft sarcoma 45 in rats; type: in vivo; conditions: rats
Description: as §1, §2, §3

[3] = Growth of graft sarcoma 180 in mice; type: in vivo, noninbred white mice; conditions: mouse, in vivo, ip; mice with sarcoma 180, repeated intraperitoneal administration; read-out: Maximum tolerable dose (MTD)
Description: as §1
(§4) (2) noninbred white mice: sarcoma 180, sarcoma AK, sarcoma 37, carcinoma HK;
as §3

[4] = tested on: sarcoma 180; assay: Growth of graft sarcoma 180 in mice; type: in vivo, noninbred white mice; conditions: mice; for It, % tumor growth suppression index / Change in the animal body weight, test: 6 injections
Description: as §1, §4, §3

[5] = Growth of graft sarcoma 37 in mice; type: in vivo, noninbred white mice; conditions: mouse, in vivo, ip; mice with sarcoma 37, repeated intraperitoneal administration; read-out: Maximum tolerable dose (MTD)
Description: as §1, §4, §3

[6] = tested on: sarcoma 37; assay: Growth of graft sarcoma 37 in mice; type: in vivo, noninbred white mice; conditions: mice
Description: as §1, §4, §3

[7] = Growth of graft carcinoma HK in mice; type: in vivo, noninbred white mice; conditions: mouse, in vivo, ip; mice with carcinoma HK, repeated intraperitoneal administration; read-out: Maximum tolerable dose (MTD)
Description: as §1, §4, §3

[8] = tested on: carcinoma HK; assay: Growth of graft carcinoma HK in mice; type: in vivo, noninbred white mice; conditions: mice, 6 injections
Description: as §1, §4, §3

[9] = Distribution of C^14-labeled preparation within organs and tissues of rats with sarcoma M-1; type: in vivo; conditions: rats with sarcoma M-1, intravenous
Description: Furthermore, the particular distribution of the preparation according to the present invention within organs and tissues should also be noted.
In the case of administration of the preparation according to the present invention labeled with C^14, a higher level of radioactivity in blood is observed than in the case of prospidin labeled with C^14. A higher rate of accumulation of the preparation according to the present invention as compared to prospidin is observed in larynx, windpipe, bronchi, bone marrow, tumor and thyroid gland. The preparation according to the present invention labeled with C^14 is withdrawn from the organism within 24 hours after the intravenous administration mainly with urine, while C^14 --labeled prospidin is retained in the organism for a longer period.

[10] = tested on: acute leucosis; assay: Clinical study on patients; type: in vivo
Description: The preparation according to the present invention has been studied in two clinics on patients with different localization of the tumoral process; the tests have justified its low toxicity.
54 patients were under observation including 20 patients with malignant blood diseases. In all the patients both before and after the course of treatment with the medicated compound according to the present invention the clinical state has been assessed (general state, presence of increased lymphatic nodes, liver and spleen). There were also carried out the analyses of peripheral blood, bone marrow, urine, as well as biochemical blood characteristics and electrocardiographic data (ECG).

[11] = Solubility; type: physicochemical
Protocol: as §3
To a mixture of 3 g of N^1,N^2 -dispirotripiperazinium dichloride, 1.5 g of lithium hydroxide, 1 ml of water and 10 ml of ether a solution of 5.2 g of β-bromopropionic acid chlorid in 5 ml of ether is added under vigorous stirring and at a temperature of 5° to 10° C. The reaction mass is stirred for 2 hours at the temperature of 15° C. The residue is filtered off, dissolved in 10 ml of water; the resulting aqueous solution is poured in 100 ml of methanol.

[12] = 50 mg/kg intraperitoneally, 7 injections
[13] = 80 mg/kg intraperitoneally, 5 injections
[14] = 75 mg/kg intraperitoneally, 7 injections
[15] = 250 mg/kg intraperitoneally (MTD)

O=C(CCBr)N1CC[N+]2(CC1)CC[N+]1(CCN(C(=O)CCBr)CC1)CC2 [Compound 1, N,N^3 -di-(β-bromopropionyl)-N^1,N^2 -dispirotripiperazinium dichloride]
MTD [1]: 125 mg/kg | Change in the animal body weight, test ([2]; 20 mg/kg intraperitoneally, 7 injections): -12 g | It, % tumor growth suppression index ([2]; 20 mg/kg intraperitoneally, 7 injections, 20 mg/kg): 0% | Change in the animal body weight, test [2, 12]: -8 g | It, % tumor growth suppression index [2, 12]: +61% | Change in the animal body weight, test [2, 13]: -9 g | It, % tumor growth suppression index [2, 13]: +99% | Change in the animal body weight, test ([2]; 125 mg/kg intraperitoneally (MTD), 5 injections): -3 g | MTD [3]: 262 mg/kg | tumor growth suppression class, Sarcoma 180 [4]: ++ (tumor growth suppression by 80-95%) | It, % tumor growth suppression index ([4]; 25 mg/kg intraperitoneally): +42% | Change in the animal body weight, test ([4]; 75 mg/kg intraperitoneally): -4 g | It, % tumor growth suppression index ([4]; 75 mg/kg intraperitoneally, 75 mg/kg): +74% | It, % tumor growth suppression index ([4]; 75 mg/kg intraperitoneally, listed as preparation of the invention, 75 mg/kg): 74% | Change in the animal body weight, test ([4]; 262 mg/kg intraperitoneally (MTD)): -6 g | MTD [5]: 277 mg/kg | Change in the animal body weight, test [6, 14]: -2 g | It, % tumor growth suppression index [6, 14]: +74% | It, % tumor growth suppression index ([6]; 150 mg/kg intraperitoneally, 5 injections): +53% | Change in the animal body weight, test ([6]; 277 mg/kg intraperitoneally (MTD), 6 injections): -4 g | MTD [7]: 250 mg/kg | Change in the animal body weight, test ([8]; 125 mg/kg intraperitoneally): -3 g | It, % tumor growth suppression index ([8]; 125 mg/kg intraperitoneally): +42% | Change in the animal body weight, test [8, 15]: -4 g | It, % tumor growth suppression index [8, 15]: +86% | Coefficient of differential accumulation, Blood ([9]; 15 min): 1.43 | Coefficient of differential accumulation, Bone marrow ([9]; 15 min): 3.84 | Coefficient of differential accumulation, Bronchi ([9]; 15 min): 3.4 | Coefficient of differential accumulation, Hypophysis ([9]; 15 min): 6.3 | Coefficient of differential accumulation, Kidneys ([9]; 15 min): 10.4 | Coefficient of differential accumulation, Larynx ([9]; 15 min): 4.15 | Coefficient of differential accumulation, Liver ([9]; 15 min): 0.94 | Coefficient of differential accumulation, Lungs ([9]; 15 min): 0.95 | Coefficient of differential accumulation, Lymphonodes ([9]; 15 min): 0.69 | Coefficient of differential accumulation, Spleen ([9]; 15 min): 0.66 | Coefficient of differential accumulation, Thymus gland ([9]; 15 min): 1.67 | Coefficient of differential accumulation, Tumor ([9]; 15 min): 1.76 | Coefficient of differential accumulation, Tyroid gland ([9]; 15 min): 3.5 | Coefficient of differential accumulation, Windpipe ([9]; 15 min): 7.29 | Coefficient of differential accumulation, Blood ([9]; 30 min): 0.91 | Coefficient of differential accumulation, Bone marrow ([9]; 30 min): 6.67 | Coefficient of differential accumulation, Bronchi ([9]; 30 min): 2.83 | Coefficient of differential accumulation, Hypophysis ([9]; 30 min): 6.67 | Coefficient of differential accumulation, Kidneys ([9]; 30 min): 5.4 | Coefficient of differential accumulation, Larynx ([9]; 30 min): 3.43 | Coefficient of differential accumulation, Liver ([9]; 30 min): 0.69 | Coefficient of differential accumulation, Lungs ([9]; 30 min): 0.71 | Coefficient of differential accumulation, Lymphonodes ([9]; 30 min): 0.11 | Coefficient of differential accumulation, Spleen ([9]; 30 min): 0.33 | Coefficient of differential accumulation, Thymus gland ([9]; 30 min): 0.71 | Coefficient of differential accumulation, Tumor ([9]; 30 min): 0.91 | Coefficient of differential accumulation, Tyroid gland ([9]; 30 min): 2.73 | Coefficient of differential accumulation, Windpipe ([9]; 30 min): 4.62 | Coefficient of differential accumulation, Blood ([9]; 60 min): 0.47 | Coefficient of differential accumulation, Bone marrow ([9]; 60 min): 3.78 | Coefficient of differential accumulation, Bronchi ([9]; 60 min): 1.7 | Coefficient of differential accumulation, Hypophysis ([9]; 60 min): 5.13 | Coefficient of differential accumulation, Kidneys ([9]; 60 min): 2.6 | Coefficient of differential accumulation, Larynx ([9]; 60 min): 2.0 | Coefficient of differential accumulation, Liver ([9]; 60 min): 0.76 | Coefficient of differential accumulation, Lungs ([9]; 60 min): 0.86 | Coefficient of differential accumulation, Lymphonodes ([9]; 60 min): 0.69 | Coefficient of differential accumulation, Spleen ([9]; 60 min): 0.32 | Coefficient of differential accumulation, Thymus gland ([9]; 60 min): 0.54 | Coefficient of differential accumulation, Tumor ([9]; 60 min): 0.57 | Coefficient of differential accumulation, Tyroid gland ([9]; 60 min): 1.43 | Coefficient of differential accumulation, Windpipe ([9]; 60 min): 4.64 | Coefficient of differential accumulation, Blood ([9]; 24 hours): 0.05 | Coefficient of differential accumulation, Bone marrow ([9]; 24 hours): 0.76 | Coefficient of differential accumulation, Bronchi ([9]; 24 hours): 0.24 | Coefficient of differential accumulation, Hypophysis ([9]; 24 hours): 4.12 | Coefficient of differential accumulation, Kidneys ([9]; 24 hours): 0.53 | Coefficient of differential accumulation, Larynx ([9]; 24 hours): 0.58 | Coefficient of differential accumulation, Liver ([9]; 24 hours): 0.32 | Coefficient of differential accumulation, Lungs ([9]; 24 hours): 0.26 | Coefficient of differential accumulation, Lymphonodes ([9]; 24 hours): 0.2 | Coefficient of differential accumulation, Spleen ([9]; 24 hours): 0.11 | Coefficient of differential accumulation, Thymus gland ([9]; 24 hours): 0.2 | Coefficient of differential accumulation, Tumor ([9]; 24 hours): 0.26 | Coefficient of differential accumulation, Tyroid gland ([9]; 24 hours): 0.48 | Coefficient of differential accumulation, Windpipe ([9]; 24 hours): 0.6 | patients with positive effect ([10]; intravenously, doses of from 100 to 1,000 mg): 45% | tolerability in patients ([10]; intravenously, single doses 500 to 600 mg daily (up to 10 g for 20 days)): well tolerated | patients with complete clinicohematological remission ([10]; patients with acute lympho- and mielo-regional leukemiae, intravenously 100 to 1,000 mg): 20% | solubility in an isotonic solution of sodium chloride [11]: well-soluble | solubility in organic solvents [11]: substantially insoluble | solubility in water [11]: well soluble
